Results as given in ChEMBL document CHEMBL5579876, “Small Molecules Blocking the Assembly of TCAB1 and Telomerase Complexes: Lead Discovery and Biological Activity” (ACS Med Chem Lett, 2024).
Active and inactive are the calls of the source. No cut-off for these calls is given here.

Experiments:
[1] = molecular target: Telomerase reverse transcriptase (Homo sapiens, UniProt O14746); assay: Inhibition of telomerase activity in human HL-60 cells incubated for 96 hrs by TRAP-PCR assay; format: cell-based
[2] = Cytotoxicity against human GES1 cells assessed as inhibition of cell growth measured after 96 hrs by CCK-8 assay; format: toxicity, cell-based
HL-60 = assay: cells; conditions: Homo sapiens, HL-60, 96 h
Description: Antiproliferative activity against human HL-60 cells assessed as inhibition of cell growth measured after 96 hrs by CCK-8 assay

CT26 = assay: cells; conditions: Mus musculus, CT26, 96 h
Description: Antiproliferative activity against mouse CT26 cells assessed as inhibition of cell growth measured after 96 hrs by CCK-8 assay

[3] = molecular target: Telomerase Cajal body protein 1 (Homo sapiens) (UniProt Q9BUR4); assay: Thermal stabilization of TCAB1 in human HL-60 cells at 10 uM incubated for 30 mins by CETSA; format: cell-based
[4] = molecular target: Telomerase Cajal body protein 1 (Homo sapiens) (UniProt Q9BUR4); assay: Inhibition of hTERT binding to TCAB1 in human HL-60 cells at 10 uM incubated for 48 hrs by Co-IP analysis; format: cell-based

Telomerase reverse transcriptase, sequence (O14746 whole entry): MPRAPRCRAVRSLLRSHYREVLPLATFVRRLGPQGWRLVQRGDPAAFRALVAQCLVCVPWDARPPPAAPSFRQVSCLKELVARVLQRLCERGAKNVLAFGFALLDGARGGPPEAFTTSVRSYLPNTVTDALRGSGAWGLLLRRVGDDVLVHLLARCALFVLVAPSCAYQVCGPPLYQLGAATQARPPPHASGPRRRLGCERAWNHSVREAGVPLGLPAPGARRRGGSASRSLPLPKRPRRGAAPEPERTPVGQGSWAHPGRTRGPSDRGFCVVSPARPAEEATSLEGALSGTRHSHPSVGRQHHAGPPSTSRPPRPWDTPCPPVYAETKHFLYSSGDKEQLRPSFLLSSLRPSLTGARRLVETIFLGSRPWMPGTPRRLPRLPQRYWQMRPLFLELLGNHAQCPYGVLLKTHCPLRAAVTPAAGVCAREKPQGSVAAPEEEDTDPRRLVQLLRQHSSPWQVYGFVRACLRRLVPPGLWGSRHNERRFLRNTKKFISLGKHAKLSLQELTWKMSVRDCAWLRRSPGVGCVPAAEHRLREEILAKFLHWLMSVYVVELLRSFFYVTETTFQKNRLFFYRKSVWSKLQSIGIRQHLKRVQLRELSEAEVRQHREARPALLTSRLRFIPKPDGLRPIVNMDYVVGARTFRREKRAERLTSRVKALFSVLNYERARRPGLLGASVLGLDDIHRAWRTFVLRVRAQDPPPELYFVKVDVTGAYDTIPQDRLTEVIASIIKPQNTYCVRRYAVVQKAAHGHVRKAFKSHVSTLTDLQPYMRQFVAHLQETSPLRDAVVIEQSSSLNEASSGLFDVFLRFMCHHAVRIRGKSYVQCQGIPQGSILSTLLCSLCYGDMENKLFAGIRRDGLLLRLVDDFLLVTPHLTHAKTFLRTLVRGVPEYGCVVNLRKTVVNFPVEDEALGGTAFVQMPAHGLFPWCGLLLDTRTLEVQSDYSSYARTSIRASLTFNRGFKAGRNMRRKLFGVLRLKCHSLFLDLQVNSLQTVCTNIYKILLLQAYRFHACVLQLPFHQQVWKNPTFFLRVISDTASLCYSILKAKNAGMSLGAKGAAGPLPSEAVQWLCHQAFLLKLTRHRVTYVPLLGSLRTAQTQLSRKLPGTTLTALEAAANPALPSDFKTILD
Telomerase Cajal body protein 1 (Homo sapiens), sequence (Q9BUR4 whole entry): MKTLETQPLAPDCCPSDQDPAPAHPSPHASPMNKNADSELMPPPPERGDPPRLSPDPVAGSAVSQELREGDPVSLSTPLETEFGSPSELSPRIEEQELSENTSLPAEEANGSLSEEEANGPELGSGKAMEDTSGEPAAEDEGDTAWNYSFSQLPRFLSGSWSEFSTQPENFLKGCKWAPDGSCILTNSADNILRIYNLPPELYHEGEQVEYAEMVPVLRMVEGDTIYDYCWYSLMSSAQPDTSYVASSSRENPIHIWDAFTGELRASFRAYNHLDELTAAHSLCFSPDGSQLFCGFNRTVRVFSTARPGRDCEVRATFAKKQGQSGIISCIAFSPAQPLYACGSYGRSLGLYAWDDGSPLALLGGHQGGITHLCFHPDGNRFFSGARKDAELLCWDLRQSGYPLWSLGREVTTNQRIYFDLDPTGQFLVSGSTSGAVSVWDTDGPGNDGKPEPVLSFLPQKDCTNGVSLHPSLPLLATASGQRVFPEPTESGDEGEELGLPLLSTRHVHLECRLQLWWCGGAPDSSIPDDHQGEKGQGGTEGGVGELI

Row | Structure (SMILES) | IC50 [1] [µM] | also measured
1 | CCOc1cc(C2NC(=O)N(C)C(C)=C2C(=O)OCC2CCCO2)cc(Cl)c1O (configuration not stated) | > 10 | –
2 | Cc1ccc2nc(NCCO)c(/C=C3\SC(=S)N(Cc4ccc5c(c4)OCO5)C3=O)c(=O)n2c1 | > 10 | –
3 | CCOC(=O)c1cccc(NC(=O)CSc2nnc(-c3cccnc3)n2-c2ccc(OC)cc2)c1 | > 10 | –
4 | CCn1c(CN2NC(C)=CCC2=O)nnc1SCC(=O)Nc1ccc(S(N)(=O)=O)cc1 | > 10 | –
5 | C/C(=C\C(=O)Nc1ccccc1C(=O)O)c1ccc2ccccc2c1 | 0.091 | IC50 at 96 h [2]: 206 µM; IC50 (HL-60): 47.8 µM; IC50 (CT26): 42.9 µM
6 | CCOC(=O)C1=C(C)N=c2s/c(=C\c3ccc(O)c(OC)c3)c(=O)n2C1c1ccc(OCC)cc1 (configuration not stated) | > 10 | –
7 | C#CCOc1ccc(/C=C2\SC(Nc3ccc(OCC)cc3)=C(C(=O)OCC)C2=O)cc1OC | – | Activity [3]: Active; IC50 at 96 h [2]: > 1000 µM; IC50 (HL-60): > 200 µM; IC50 (CT26): 46.3 µM; inhibition [4]: inactive
8 | CC(=O)c1cccc(/N=c2\scc(-c3ccc(S(=O)(=O)N4CCOCC4)cc3)n2CCO)c1 | > 10 | –
9 | CCC(CO)NS(=O)(=O)c1cccc2c(S(=O)(=O)NC(CC)CO)cccc12 (configuration not stated) | > 10 | –
10 | O=C(CCS(=O)(=O)c1nc(-c2ccccc2)cc(C(F)(F)F)n1)Nc1cccnc1Cl | > 10 | –
11 | COc1ccc(C2C(C(=O)Nc3ccc(Cl)cc3)=C(C)N=C3N=C(CCCO)NN32)c(OC)c1 (configuration not stated) | > 10 | –
12 | O=C(C1=C(O)C(=O)N(CCOCCO)C1c1cccc(O)c1)c1cccs1 (configuration not stated) | > 10 | –
13 | COC(=O)C1=C(C)N(CC2CCCO2)C(=O)/C1=C\c1ccc(OCC(=O)NC(C)C)cc1 (configuration not stated) | – | Activity [3]: Active; IC50 at 96 h [2]: > 1000 µM; IC50 (HL-60): 156 µM; IC50 (CT26): 26.9 µM; inhibition [4]: inactive
14 | COc1ccc(C(=O)C2=C(O)C(=O)N(CCO)C2c2ccc(C)cc2)cc1 (configuration not stated) | > 10 | –
15 | COc1ccc(-c2ccc(S(=O)(=O)NCCO)cc2)c(S(=O)(=O)NCCO)c1 | > 10 | –
16 | CCOc1cc(/C=C2/C(=N)N3N=C(C)SC3=NC2=O)ccc1OCCOc1cccc(OC)c1 | > 10 | –
17 | CCOc1cc(C2NC(=O)NC(C)=C2C(=O)OCc2ccc3c(c2)OCO3)ccc1O (configuration not stated) | > 10 | –
18 | CCCc1cc(=O)oc2cc(OCC(=O)Nc3ccc(S(N)(=O)=O)cc3)c(Cl)cc12 | > 10 | –
19 | O=C(C1=C(O)C(=O)N(Cc2ccco2)C1c1cccc(O)c1)c1ccc2c(c1)OCCO2 (configuration not stated) | – | Activity [3]: Active; IC50 at 96 h [2]: > 1000 µM; IC50 (HL-60): > 200 µM; IC50 (CT26): > 200 µM; inhibition [4]: inactive
20 | CCOc1ccc(N2C(=O)CC(N(CCc3ccc(S(N)(=O)=O)cc3)C(C)=O)C2=O)cc1 (configuration not stated) | > 10 | –
21 | CCOc1cc(C2C(C#N)=C(N)Oc3n[nH]c(C(C)(C)C)c32)ccc1OCCN1CCOCC1 (configuration not stated) | > 10 | –
22 | CC(=O)Nc1ccc(/C=C2\C=C(C(O)c3ccc(NC(C)=O)cc3)c3ccccc32)cc1 (configuration not stated) | > 10 | –
